Assay results published in US10040781B2, “Tank-binding kinase inhibitor compounds” (Gilead Sciences, Inc., priority 2014, dated 2018).
Structures can show the parent of a compound that is named as a salt.

What was measured:
IKKε = IKKε (Homo sapiens (Human), UniProt Q14164); experiment: IKKε TR-FRET enzymatic assay; assay type: biochemical; conditions: TR-FRET, 2×Km ATP; geometric mean of minimum four determinations; read-out: IKKe IC50
hJAK2 = hJAK2 (Homo sapiens (Human), UniProt O60674); experiment: hJAK2 LANCE TR-FRET enzymatic assay; assay type: biochemical; conditions: read-out: JAK2 IC50
Sequence of hJAK2 (O60674 whole entry): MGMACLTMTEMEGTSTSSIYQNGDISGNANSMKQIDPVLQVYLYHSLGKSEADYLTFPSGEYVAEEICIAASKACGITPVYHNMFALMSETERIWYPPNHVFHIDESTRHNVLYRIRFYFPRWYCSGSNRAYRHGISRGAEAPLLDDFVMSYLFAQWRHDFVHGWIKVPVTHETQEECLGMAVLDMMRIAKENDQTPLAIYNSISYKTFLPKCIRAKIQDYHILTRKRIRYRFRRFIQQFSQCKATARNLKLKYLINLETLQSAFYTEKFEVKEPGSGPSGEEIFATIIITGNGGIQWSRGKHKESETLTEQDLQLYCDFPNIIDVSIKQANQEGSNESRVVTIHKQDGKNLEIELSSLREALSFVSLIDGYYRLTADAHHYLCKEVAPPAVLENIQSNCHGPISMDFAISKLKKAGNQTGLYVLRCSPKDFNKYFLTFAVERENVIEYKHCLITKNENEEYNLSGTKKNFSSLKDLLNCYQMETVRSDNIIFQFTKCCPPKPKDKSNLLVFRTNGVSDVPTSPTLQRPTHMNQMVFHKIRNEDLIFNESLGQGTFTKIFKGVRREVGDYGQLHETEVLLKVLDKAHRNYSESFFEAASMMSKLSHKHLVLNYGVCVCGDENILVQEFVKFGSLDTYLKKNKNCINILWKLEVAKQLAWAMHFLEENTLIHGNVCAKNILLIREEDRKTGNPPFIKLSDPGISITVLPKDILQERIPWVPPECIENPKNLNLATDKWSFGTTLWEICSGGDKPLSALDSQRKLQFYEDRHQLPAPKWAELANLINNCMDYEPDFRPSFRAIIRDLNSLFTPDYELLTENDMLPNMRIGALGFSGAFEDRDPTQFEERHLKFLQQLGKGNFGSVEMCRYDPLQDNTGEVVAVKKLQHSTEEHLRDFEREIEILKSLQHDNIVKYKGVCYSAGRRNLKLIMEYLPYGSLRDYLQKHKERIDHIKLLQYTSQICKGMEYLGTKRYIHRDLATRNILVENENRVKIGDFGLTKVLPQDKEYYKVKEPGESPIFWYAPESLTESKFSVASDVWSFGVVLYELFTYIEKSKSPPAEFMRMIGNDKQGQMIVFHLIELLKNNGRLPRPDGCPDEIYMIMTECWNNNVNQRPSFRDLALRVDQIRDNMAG

TBK1 = TBK1 (Homo sapiens (Human), UniProt Q9UHD2); experiment: TBK1 TR-FRET enzymatic assay;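 further: phosphorylation of a biotinylated Ser/Thr peptide by purified full-length recombinant TBK1, read by TR-FRET after 240 min at 25 °C, IC50 is the geometric mean of at least four runs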
Sequence of TBK1 (Q9UHD2 whole entry): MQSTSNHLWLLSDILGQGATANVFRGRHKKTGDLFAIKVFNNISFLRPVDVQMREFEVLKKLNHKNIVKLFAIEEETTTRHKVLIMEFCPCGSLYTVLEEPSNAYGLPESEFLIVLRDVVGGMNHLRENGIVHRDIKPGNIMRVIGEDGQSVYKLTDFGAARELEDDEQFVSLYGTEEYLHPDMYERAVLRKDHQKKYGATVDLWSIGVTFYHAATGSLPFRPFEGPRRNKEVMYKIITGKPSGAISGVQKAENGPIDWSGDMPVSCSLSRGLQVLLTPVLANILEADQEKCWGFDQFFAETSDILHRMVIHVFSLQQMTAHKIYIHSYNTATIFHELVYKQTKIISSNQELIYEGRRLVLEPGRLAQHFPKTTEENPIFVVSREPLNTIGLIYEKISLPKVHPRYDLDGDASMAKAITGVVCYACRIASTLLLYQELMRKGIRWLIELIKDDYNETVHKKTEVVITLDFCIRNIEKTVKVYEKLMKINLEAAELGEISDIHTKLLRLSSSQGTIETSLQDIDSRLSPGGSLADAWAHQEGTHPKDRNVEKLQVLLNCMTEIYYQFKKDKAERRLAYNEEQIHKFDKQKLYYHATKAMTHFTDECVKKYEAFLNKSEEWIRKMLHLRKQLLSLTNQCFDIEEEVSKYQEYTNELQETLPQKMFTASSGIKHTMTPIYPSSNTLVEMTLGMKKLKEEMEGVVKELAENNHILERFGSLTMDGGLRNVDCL

Sequence of IKKε (Q14164 whole entry): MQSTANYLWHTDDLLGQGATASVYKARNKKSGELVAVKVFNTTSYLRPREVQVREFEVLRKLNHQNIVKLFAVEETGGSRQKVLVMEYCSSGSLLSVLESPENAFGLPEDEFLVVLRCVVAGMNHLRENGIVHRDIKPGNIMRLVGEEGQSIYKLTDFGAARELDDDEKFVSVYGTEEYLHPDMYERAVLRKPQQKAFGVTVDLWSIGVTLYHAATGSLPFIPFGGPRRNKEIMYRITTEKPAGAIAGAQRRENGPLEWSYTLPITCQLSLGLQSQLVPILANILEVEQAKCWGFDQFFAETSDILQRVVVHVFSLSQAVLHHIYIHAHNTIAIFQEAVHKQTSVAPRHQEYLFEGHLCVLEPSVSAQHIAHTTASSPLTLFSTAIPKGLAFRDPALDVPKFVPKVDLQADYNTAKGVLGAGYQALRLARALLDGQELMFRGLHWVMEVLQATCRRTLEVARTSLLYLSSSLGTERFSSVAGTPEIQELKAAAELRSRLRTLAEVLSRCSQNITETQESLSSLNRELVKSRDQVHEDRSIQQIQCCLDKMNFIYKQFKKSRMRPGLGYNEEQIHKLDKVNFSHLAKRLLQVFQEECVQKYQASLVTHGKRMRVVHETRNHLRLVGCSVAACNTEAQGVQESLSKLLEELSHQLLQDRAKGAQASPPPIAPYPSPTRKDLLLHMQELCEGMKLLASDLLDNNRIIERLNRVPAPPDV

Compound	IC50 (IKKε) [nM]	IC50 (hJAK2) [nM]	IC50 (TBK1) [nM]
C[C@H](O)C(=O)N1CC[C@H](Oc2ccc(-c3ncnc(Nc4ccc(-c5ccn(C)c(=O)c5)cc4)n3)cc2C#N)[C@H](F)C1 [Example 476, 2-(((3R,4S)-3-fluoro-1-((S)-2-hydroxypropanoyl)piperidin-4-yl)oxy)-5-(4-((4-(1-methyl-2-oxo-1,2-dihydropyridin-4-yl)phenyl)amino)-1,3,5-triazin-2-yl)benzonitrile]	3	≥ 1000	3
N#Cc1cc(-c2ncnc(Nc3ccc(N4CCN(C5COC5)CC4)cc3)n2)ccc1O[C@H]1CCN(C(=O)c2cocn2)C[C@H]1F [Example 477, 2-(((3R,4S)-3-fluoro-1-(oxazole-4-carbonyl)piperidin-4-yl)oxy)-5-(4-((4-(4-(oxetan-3-yl)piperazin-1-yl)phenyl)amino)-1,3,5-triazin-2-yl)benzonitrile]	2	526	3
N#Cc1cc(-c2ncnc(Nc3ccc(N4CCN(C5COC5)CC4)cc3)n2)ccc1O[C@H]1CCN(c2ccccn2)C[C@H]1F [Example 480, 2-(((3R,4S)-3-fluoro-1-(pyridin-2-yl)piperidin-4-yl)oxy)-5-(4-((4-(4-(oxetan-3-yl)piperazin-1-yl)phenyl)amino)-1,3,5-triazin-2-yl)benzonitrile]	180	≥ 1000	47
CS(=N)(=O)c1ccc(Nc2ncnc(-c3ccc(O[C@H]4CCN(C=O)CC4(F)F)c(C#N)c3)n2)cc1 (stereo partly drawn) [Example 482, 2-(((S)-3,3-difluoro-1-formylpiperidin-4-yl)oxy)-5-(4-((4-(S-methylsulfonimidoyl)phenyl)amino)-1,3,5-triazin-2-yl)benzonitrile]	7	221	5
COc1cc(Nc2ncnc(-c3ccc(O[C@H]4CCN(C(=O)[C@H](C)O)C[C@H]4F)c(C#N)c3)n2)ccc1S(C)(=O)=O [Example 483, 2-(((3R,4S)-3-fluoro-1-((S)-2-hydroxypropanoyl)piperidin-4-yl)oxy)-5-(4-((3-methoxy-4-(methylsulfonyl)phenyl)amino)-1,3,5-triazin-2-yl)benzonitrile]	6	≥ 1000	8
CS(=O)(=O)c1ccc(-c2ncnc(Nc3ccc(N4CCN(C5COC5)CC4)cc3)n2)cc1 [Example 484, 4-(4-(methylsulfonyl)phenyl)-N-(4-(4-(oxetan-3-yl)piperazin-1-yl)phenyl)-1,3,5-triazin-2-amine, trifluoroacetic acid salt]	≥ 1000	837	1000
Cc1cc(Nc2ncnc(-c3ccc(O[C@H]4CCN(C(=O)c5cn(C)nn5)C[C@H]4F)c(C#N)c3)n2)ccc1C1CCN(C)CC1 [Example 485, 2-(((3R,4S)-3-fluoro-1-(1-methyl-1H-1,2,3-triazole-4-carbonyl)piperidin-4-yl)oxy)-5-(4-((3-methyl-4-(1-methylpiperidin-4-yl)phenyl)amino)-1,3,5-triazin-2-yl)benzonitrile]	1	576	3
C[C@H](O)C(=O)N1CC[C@H](Oc2ccc(-c3ncnc(Nc4cccc(C(C)(C)O)c4)n3)cc2C#N)[C@H](F)C1 [Example 486, 2-(((3R,4S)-3-fluoro-1-((S)-2-hydroxypropanoyl)piperidin-4-yl)oxy)-5-(4-((3-(2-hydroxypropan-2-yl)phenyl)amino)-1,3,5-triazin-2-yl)benzonitrile]	5	767	3
N#Cc1cc(-c2ncnc(Nc3ccc(N4CCN(C5COC5)CC4)cc3)n2)ccc1OCC1(C#N)COC1 [Example 491, 3-((2-cyano-4-(4-((4-(4-(oxetan-3-yl)piperazin-1-yl)phenyl)amino)-1,3,5-triazin-2-yl)phenoxy)methyl)oxetane-3-carbonitrile]	33	216	25
N#CCC(=O)Nc1ccc(-c2ncnc(Nc3ccc(N4CCN(C5COC5)CC4)cc3)n2)cc1C#N [Example 494, 2-cyano-N-(2-cyano-4-(4-((4-(4-(oxetan-3-yl)piperazin-1-yl)phenyl)amino)-1,3,5-triazin-2-yl)phenyl)acetamide]	29	12	19
CCC(=O)Nc1ccc(-c2ncnc(Nc3ccc(N4CCN(C5COC5)CC4)cc3)n2)cc1C#N [Example 495, N-(2-cyano-4-(4-((4-(4-(oxetan-3-yl)piperazin-1-yl)phenyl)amino)-1,3,5-triazin-2-yl)phenyl)propionamide]	119	109	40
N#Cc1cc(-c2ncnc(Nc3ccc(N4CCN(C5COC5)CC4)cc3)n2)ccc1NC(=O)CC(F)(F)F [Example 496, N-(2-cyano-4-(4-((4-(4-(oxetan-3-yl)piperazin-1-yl)phenyl)amino)-1,3,5-triazin-2-yl)phenyl)-3,3,3-trifluoropropanamide]	8	8	6
COc1cc(Nc2ncnc(-c3ccc(O[C@H]4CCN(C(=O)[C@H](C)O)C[C@H]4F)c(C#N)c3)n2)ccc1N1CCN(C)C[C@@H]1C [Example 499, 5-(4-((4-((S)-2,4-dimethylpiperazin-1-yl)-3-methoxyphenyl)amino)-1,3,5-triazin-2-yl)-2-(((3R,4S)-3-fluoro-1-((S)-2-hydroxypropanoyl)piperidin-4-yl)oxy)benzonitrile]	1	79	2
CCn1cc(Nc2ncnc(-c3ccc(O[C@H]4CCN(C(=O)CO)C[C@H]4F)c(C#N)c3)n2)nn1 [Example 502, 5-(4-((1-ethyl-1H-1,2,3-triazol-4-yl)amino)-1,3,5-triazin-2-yl)-2-(((3R,4S)-3-fluoro-1-(2-hydroxyacetyl)piperidin-4-yl)oxy)benzonitrile]	29	≥ 1000	28
CCn1ncc(Nc2ncnc(-c3ccc(O[C@H]4CCN(C(=O)CO)C[C@H]4F)c(C#N)c3)n2)n1 [Example 503, 5-(4-((2-ethyl-2H-1,2,3-triazol-4-yl)amino)-1,3,5-triazin-2-yl)-2-(((3R,4S)-3-fluoro-1-(2-hydroxyacetyl)piperidin-4-yl)oxy)benzonitrile]	20	≥ 1000	7
N#Cc1cc(-c2ncnc(Nc3ccc(N4CCN(C5COC5)CC4)cc3)n2)ccc1O[C@H]1CCN(C(=O)[C@@H]2CCCO2)C[C@H]1F [Example 504, 2-(((3R,4S)-3-fluoro-1-((S)-tetrahydrofuran-2-carbonyl)piperidin-4-yl)oxy)-5-(4-((4-(4-(oxetan-3-yl)piperazin-1-yl)phenyl)amino)-1,3,5-triazin-2-yl)benzonitrile]	5	≥ 1000	4

Second part, the molecule after the results:

IC50 (IKKε) [nM]	IC50 (hJAK2) [nM]	IC50 (TBK1) [nM]	Compound
1	135	3	N#Cc1cc(-c2ncnc(Nc3ccc(N4CCN(C5COC5)CC4)cc3)n2)ccc1O[C@H]1CCN(C(=O)NO)C[C@H]1F [Example 478, (3R,4S)-4-(2-cyano-4-(4-((4-(4-(oxetan-3-yl)piperazin-1-yl)phenyl)amino)-1,3,5-triazin-2-yl)phenoxy)-3-fluoro-N-hydroxypiperidine-1-carboxamide]
1	≥ 1000	2	COc1cc(Nc2ncnc(-c3ccc(O[C@H]4CCN(C(=O)[C@@H](O)CO)CC4(F)F)c(C#N)c3)n2)ccn1 [Example 479, 2-(((S)-1-((S)-2,3-dihydroxypropanoyl)-3,3-difluoropiperidin-4-yl)oxy)-5-(4-((2-methoxypyridin-4-yl)amino)-1,3,5-triazin-2-yl)benzonitrile]
1	324	3	Cc1cc(Nc2ncnc(-c3ccc(O[C@H]4CCN(C(=O)[C@H](C)O)C[C@H]4F)c(C#N)c3)n2)ccc1C1CCN(C)CC1 [Example 487, 2-(((3R,4S)-3-fluoro-1-((S)-2-hydroxypropanoyl)piperidin-4-yl)oxy)-5-(4-((3-methyl-4-(1-methylpiperidin-4-yl)phenyl)amino)-1,3,5-triazin-2-yl)benzonitrile]
1	131	4	Cc1cc(Nc2ncnc(-c3ccc(O[C@H]4CCN(C(=O)CC#N)C[C@H]4F)c(C#N)c3)n2)ccc1C1CCN(C)CC1 [Example 488, 2-(((3R,4S)-1-(2-cyanoacetyl)-3-fluoropiperidin-4-yl)oxy)-5-(4-((3-methyl-4-(1-methylpiperidin-4-yl)phenyl)amino)-1,3,5-triazin-2-yl)benzonitrile]
1	183	4	COCC(=O)N1CC[C@H](Oc2ccc(-c3ncnc(Nc4ccc(C5CCN(C)CC5)c(C)c4)n3)cc2C#N)[C@H](F)C1 [Example 489, 2-(((3R,4S)-3-fluoro-1-(2-methoxyacetyl)piperidin-4-yl)oxy)-5-(4-((3-methyl-4-(1-methylpiperidin-4-yl)phenyl)amino)-1,3,5-triazin-2-yl)benzonitrile]
1	482	2	COCC(=O)N1CC[C@H](Oc2ccc(-c3ncnc(Nc4ccc(C5CCN(C=O)CC5)c(C)c4)n3)cc2C#N)[C@H](F)C1 [Example 492, 2-(((3R,4S)-3-fluoro-1-(2-methoxyacetyl)piperidin-4-yl)oxy)-5-(4-((4-(1-formylpiperidin-4-yl)-3-methylphenyl)amino)-1,3,5-triazin-2-yl)benzonitrile]
1	782	2	Cc1cc(Nc2ncnc(-c3ccc(O[C@H]4CCN(C(=O)[C@H](C)O)C[C@H]4F)c(C#N)c3)n2)ccc1C1CCN(C=O)CC1 [Example 493, 2-(((3R,4S)-3-fluoro-1-((S)-2-hydroxypropanoyl)piperidin-4-yl)oxy)-5-(4-((4-(1-formylpiperidin-4-yl)-3-methylphenyl)amino)-1,3,5-triazin-2-yl)benzonitrile]
